Experimental data from patent US20170105947A1, “Appetite Suppressant Composition” (priority 2015, published 2017).
Entries after “also recorded” stand apart in the source; their conditions may differ.

How the values were obtained:
[1] = in vivo; cited from earlier work
gastric emptying = settings: oral administration of 50-100 mg/kg, rats; cited from earlier work
rat intestinal cells = settings: added to rat intestinal cells / lumen of the intestine; cited from earlier work
[2] = rats vs human intake of about 350 ug/kg/day; cited from earlier work
[3] = 13 wk, rat, cited from earlier work
food preference of dogs = type: in vivo; settings: food containing 2,500 ppm vs untreated control
Text: During this experience non-encapsulated trans-2-hexenal in combination with other chemicals were applied to feed.

CCCCCCCCCCC[C@@H](C[C@@H]1OC(=O)[C@H]1CCCCCC)OC(=O)[C@H](CC(C)C)NC=O [Orlistat, tetrahydrolipstatin]
known side effects [1]: steatorrhea, fecal incontinence, frequent bowel movements and urgency, compromised absorption of fat-soluble vitamins and nutrients, increased appetite and diminished effectiveness over time

CCCCC/C=C/C=C/C=O [trans, trans-2,4-decadienal]
gastric emptying (gastric emptying): reduced gastric emptying
level of CCK in vitro (rat intestinal cells): increased the level of CCK

CCC/C=C/C=O [trans-2-hexenal]
toxic levels in rats relative to normal intake by humans [2]: 30 times
body weight and intake ([3]; 4000 ppm in diet): no significant reduction; also recorded: did not significantly affect feed intake or body weight
changes in hematological parameters or organ weights ([3]; dietary levels 0, 260, 640, 1600 or 4000 ppm): did not induce any changes
food preference (food preference of dogs): dogs preferred the untreated control
